Source: patent US7186862B2, “Microbicidal agents on the basis of biphenylbenzamide derivatives” (Bayer CropScience AG, priority 2002, dated 2007)

Columns and labels:
Pyrenophora teres = Pyrenophora teres test (barley)/protective; type: in vivo; conditions: application rate 500 g/ha; barley plants, protective spray
Procedure: [table] To produce a suitable preparation of active compound, 1 part by weight of active compound is mixed with the stated amounts of solvent and emulsifier, and the concentrate is diluted with water to the desired concentration. To test for protective activity, young plants are sprayed with the preparation of active compound at the stated application rate. After the spray coating has dried on, the plants are sprayed with a conidia suspension of Pyrenophora teres. The plants remain in an incubation cabin at 20° C. and 100% relative atmospheric humidity for 48 hours. The plants are then placed in a greenhouse at about 20° C. and a relative atmospheric humidity of about 80%.

Sphaerotheca fuliginea = assay: Sphaerotheca test (cucumber)/protective; type: in vivo; conditions: Podosphaera fuliginea, 168 h; application rate 100 g/ha; cucumber plants, protective spray; evaluation 7 days after inoculation; 100% = no infection; read-out: Efficacy in %
Procedure: (§1) [table] To produce a suitable preparation of active compound, 1 part by weight of active compound is mixed with the stated amounts of solvent and emulsifier, and the concentrate is diluted with water to the desired concentration. To test for protective activity, young plants are sprayed with the preparation of active compound at the stated application rate. After the spray coating has dried on, the plants are inoculated with an aqueous spore suspension of Sphaerotheca fuliginea. The plants are then placed in a greenhouse at about 23° C. and a relative atmospheric humidity of about 70%. Evaluation is carried out 7 days after the inoculation. 0% means an efficacy which corresponds to that of the control, whereas an efficacy of 100% means that no infection is observed.

[1] = logP determination by HPLC on reversed-phase column (EEC Directive 79/831); type: physicochemical; conditions: reversed-phase HPLC column (C18), pH 2.3, reversed-phase C18, 43° C., 0.1% aqueous phosphoric acid/acetonitrile gradient
Procedure: The logP values given in the tables and preparation examples above are determined in accordance with EEC Directive 79/831 Annex V.48 by HPLC (High Performance Liquid Chromatography) on a reversed-phase column (C18). Temperature: 43° C. The determination is carried out in the acidic range at pH 2.3 using the mobile phases 0.1% aqueous phosphoric acid and acetonitrile; linear gradient from 10% acetonitrile to 90% acetonitrile. Calibration is carried out using unbranched […] (of 3 to 16 carbon atoms) with known logP values (determination of the logP values by the retention time using linear interpolation between two successive alkanones).

Venturia inaequalis = assay: Venturia test (apple)/protective; type: in vivo; conditions: 240 h, application rate 100 g/ha, apple plants, protective spray, evaluation 10 days after inoculation, 100% = no infection, read-out: Efficacy in %
Procedure: as §1, with “conidia” for “spore”, “the apple scab pathogen Venturia inaequalis and then remain in an incubation cabin at about 20° C. and 100% relative atmospheric humidity for 1 day.” for “Sphaerotheca fuliginea.”, “21°” for “23°”, “90%.” for “70%.”, “10” for “7”

Podosphaera leucotricha = assay: Podosphaera test (apple)/protective; type: in vivo; conditions: 240 h, application rate 100 g/ha, apple plants, protective spray, evaluation 10 days after inoculation, 100% = no infection, read-out: Efficacy in %
Procedure: as §1, with “suspension of the apple mildew pathogen Podosphaera leucotricha. The plants” for “suspension of Sphaerotheca fuliginea. The plants”, “carried out 10 days after” for “carried out 7 days after”

Alternaria solani = assay: Alternaria test (tomato)/protective; type: in vivo; conditions: application rate 750 g/ha; tomato plants, protective spray, inoculation 1 day after treatment; evaluation 7 days after inoculation; 100% = no infection
Procedure: [table] To produce a suitable p reparation of active compound, 1 part by weight of active compound is mixed with the stated amounts of solvent and emulsifier, and the concentrate is diluted with water to the desired concentration. To test for protective activity, young tomato plants are sprayed with the preparation of active compound at the stated application rate. 1 day after the treatment, the plants are inoculated with a spore suspension of Alternaria solani and are then kept at 100% relative atmospheric humidity and 20° C. for 24 h. The plants are then kept at 96% relative atmospheric humidity and a temperature of 20° C. Evaluation is carried out 7 days after the inoculation. 0% means an efficacy which corresponds to that of the control, whereas an efficacy of 100% means that no infection is observed.

chromatographic logP [1]	SMILES	Efficacy in % (Pyrenophora teres)	pest or weed control at 100 g/ha (Sphaerotheca fuliginea)	pest or weed control at 100 g/ha (Venturia inaequalis)	pest or weed control at 100 g/ha (Podosphaera leucotricha)	Efficacy in % (Alternaria solani)
4.13	O=C(Nc1ccccc1-c1ccc(Cl)c(Cl)c1)c1ccccc1C(F)(F)F [Compound 4]	100%	100%	100%	100%	–
3.86	O=C(Nc1ccccc1-c1cccc(Cl)c1)c1ccccc1C(F)(F)F [Compound 7]	90%	100%	100%	100%	94%
